US4892871A, “Azido-substituted octopamine agonists and the use thereof to control invertebrate pests” (The General Hospital Corporation, priority 1988, dated 1990)
pKd, pKi: −log10 of the molar value. Read-outs that look alike come from different tables or passages of the source.

Experiments:
[1] = tested on: Light Organ Adenylate Cyclase; test: Antagonist inhibition of agonist-stimulated light organ adenylate cyclase; assay type: biochemical, firefly; details: for inhibition of compound IV stimulation of adenylate cyclase (in words): stimulation by compound IV; for pKi: read-out: Calculated Ki
adenylate cyclase = details: cited from earlier work
octopamine receptor [2] = test: In vitro octopamine agonist activity in Manduca; assay type: biochemical
Description: (§1) However, use of formamidines as pest controlling agents gives rise to certain problems, including the fact that the aniline breakdown products are carcinogenic. Moreover, a further problem is that the range of activity of these compounds is limited to a relatively few insect species. Matsumura, F., et al.. Environ. Health Perspect. 14: 71-82 (1976). […] Consistent with this in vitro activity, the formamidines are toxic in Manduca but not in the cockroach.

octopamine receptor [3] = test: In vitro octopamine agonist activity in the cockroach; assay type: biochemical
Description: as §1

[4] = tested on: octopamine receptor protein(s); test: SDS-polyacrylamide gel autoradiogram of light organ membrane proteins photolabeled with VIII; assay type: binding, firefly
[5] = tested on: intact firefly light organ; test: Light emission after injection into isolated firefly tails; assay type: in vivo
Protocol: In the second verification procedure, a bioassay was conducted which measured the effect of tritiated VIII on eliciting light emission when injected into isolated firefly tails.

Manduca larvae = test: Antifeeding activity, Manduca larvae on sprayed tomato leaves; assay type: in vivo; details: percentage of leaf area remaining after 72 hours, dim light
octopamine receptors [6] = test: Irreversible activation of adenylate cyclase after photolysis of firefly light organ membranes; assay type: biochemical; details: photolyzed, washed
Description: When exposed to ultraviolet light in these wavelengths, the N3 azido group on the para-position is photolyzed to yield free N2 and a […] covalently with a number of protein sites, including areas with double bonds, amino groups and carboxylic acids. If compound IV is occupying an octopamine receptor at the time of photolysis, then the ligand will bind to a site on or near the receptor protein. […] To determine this, a series of photolysis experiments were performed in which firefly light organ membranes were preincubated with or without compound IV and then photolyzed. Next, the membranes were extensively washed to remove all free ligand and any ligand that was not covalently bound. Following this, adenylate cyclase activity was assayed. […] Presumably, the excess octopamine displaced compound IV so that, when the membranes were later photolyzed, octopamine (and not compound IV) was occupying the receptor. Subsequently, during washing, the octopamine was removed so that the receptor returned to its unstimulated state.

[7] = tested on: octopamine-sensitive adenylate cyclase; test: Activation of adenylate cyclase in firefly light organ membrane (broken cell) preparations; assay type: biochemical, Photinus pyralis; details: for Ka (concentration necessary for half-maximal activation of cyclase activity): firefly light organ membranes, reversible conditions
Protocol: The question of whether a given azido-substituted compound within the scope of the invention is an octopamine agonist can be readily answered by measuring adenylate cyclase activity of the octopamine-sensitive adenylate cyclase present in broken cell preparations of the firefly light organ. […] Specimens of Photinus pyralis are prepared by opening their tail sections, cleaning them, removing the light organs, and homogenizing the cyclase-containing fraction. Adenylate cyclase activity is measured in appropriate buffer-containing ATP, cofactors, and the compound to be tested. Normally, the solution mixture contains a phosphodiesterase inhibitor such as theophylline, and the assay is designed to provide linear measurements with respect to time and enzyme concentration. If necessary, the compounds to be tested are initially solubilized and appropriate solvent controls are run in parallel. The enzyme reaction is initiated by addition of ATP, stopped by heating, and centrifuged. Cyclic AMP can be measured by any test which indicates the presence thereof, preferably by the protein binding assay of Brown et al. (Advances in Cyclic Nucleotide Research 2:25-40 (1972)). The determination of the constant Ka, which is the concentration of the azido-substituted agonist necessary for half-maximal activation of cyclase activity, is carried out by measuring cyclase activity in the preparation, and plotting the activity (above control activity) versus the semilogarithm of the particular agonist concentration. This is done for a series of increasing concentrations until maximal activity (Vmax) is reached. Ka^(Azido) is then calculated from the graph as the agonist concentration required for one-half of Vmax. Ka^(Azido) is compared with the constant (Ka^oct) determined in an analogous way using ±p-octopamine as the agonist. The ratio Ka^oct /ka^(Azido) is then an indication of whether a particular azido-substituted agonist (Azido) is more (ratio greater than 1) or less (ratio smaller than 1) active than (±)-p-octopamine (oct). […]

octopamine receptor [8] = test: Reversible binding of compound VIII to light organ membranes (filtration); parameters: species or system firefly
Description: The low affinity of octopamine for its receptor (Ka =30 micromolar) results in a half-time of dissociation of considerably less than 0.1 second. This precludes the use of labeled octopamine as a receptor ligand since the time required for the separation of free from bound ligand during a filtration assay is several seconds. […] In other words, following washing, enough ligand will still be on the receptor to allow estimation of the receptor's binding constant for compound IV. (Because there will still be significant loss of label during filtration, one cannot use this type of assay to estimate total receptor number).

octopamine receptors [9] = test: Irreversible (UV) binding of compound VIII to firefly light organ membranes and displacement; details: for displacement of irreversible VIII binding (in words): other experiments, nonoctopaminergic compounds
Protocol: In these experiments, membranes were preincubated with the probe for under various conditions and then the mixture was photolyzed in quartz microcuvettes using a UV-C germicidal lamp. […] To determine whether the binding was specific, various displacing agents were added during the preincubation with tritiated IV (VIII), and the mixture then photolyzed.

octopamine receptors [10] = test: Autoradiography of intact isolated firefly light organs labeled with VIII
Protocol: Because compound VIII binds irreversibly, it should have potential as an anatomic probe to […] localize octopamine receptors at the light microscopic level. To determine if this is feasible, some preliminary studies were conducted using intact isolated firefly light organs. The lanterns were first preincubated with VIII in dim light and then exposed either to no light or to intense UV. Following this step, the lanterns were extensively washed, then slide mounted, dehydrated, and exposed to tritium-sensitive X-ray film. […] In the absence of UV light, there was no labeling. Localization of octopamine receptors, particularly in the nervous system, should aid in an understanding of how octopamine exerts its behavioral effects in insects.

Question: With `CN1CCC(=C2c3ccccc3C=Cc3ccccc32)CC1` [Cyproheptadine, cyproheptadine] as the molecule, how does the “inhibition of compound IV stimulation of adenylate cyclase (in words)” value (“inhibition” below) [1] read?
Answer: The value was “inhibited”.

Question: For `CNC=Nc1ccc(Cl)cc1C` [DCDM, N-demethylchlordimeform], which “agonist character in adenylate cyclase stimulation” value (adenylate cyclase) is on record?
Answer: The value was “partial agonist”.

Question: What about the “potency relative to octopamine in adenylate cyclase stimulation” value (adenylate cyclase) of the same molecule?
Answer: The value was “about six”.

Question: For `Cc1cc(Cl)ccc1N=CN` [DDCDM, didemethylchlordimeform], which agonist character (octopamine receptor [2]) is on record?
Answer: The agonist character was “full agonist”.

Question: What about the “potency relative to octopamine” value (octopamine receptor [2]) of the same molecule?
Answer: Its value is 20 fold.

Question: What about the agonist character (octopamine receptor [3]) of the same molecule?
Answer: The agonist character was “very weak and partial agonist”.

Question: For `CN1CCN2c3ccccc3Cc3ccccc3C2C1` (centres unmarked) [Mianserin, mianserin], which “inhibition” value [1] is on record?
Answer: Its value is “inhibited”.

Question: And the “effect on VIII labeling of the protein peak at MW 74,000” value ([4]; excess antagonist present during photolysis)?
Answer: Its value is “completely blocked”.

Question: Which results are given for `Cc1ccc(N(CC2=NCCN2)c2cccc(O)c2)cc1` [Phentolamine, phentolamine]?
Answer: pKi ([1]; inhibiting stimulation by DCDM (a formamidine)): 4.74; pKi ([1]; inhibiting stimulation by compound IV): 4.70; pKi ([1]; inhibiting stimulation by octopamine (OCT)): 4.34; inhibition of compound IV stimulation of adenylate cyclase (in words) [1]: inhibited

Question: For `CC(C)NCC(O)COc1cccc2ccccc12` (centres unmarked) [Propranolol, propranolol], which “inhibition” value [1] is on record?
Answer: Its value is “less potent”.

Question: With `CCc1cc(N=[N+]=[N-])cc(CC)c1N=C1NCCN1` [compound IV, (4-azido-2,6-diethylphenyl)imino-2-imidazoline] as the molecule, how does the “potency relative to octopamine in stimulating light emission” value ([5]; injected into isolated firefly tails) read?
Answer: Its value is “about 15 fold”.

Question: And the “potency relative to octopamine in inhibiting feeding” value (Manduca larvae)?
Answer: Its value is “about 10 fold”.

Question: And the “increase in adenylate cyclase activity after prior photolysis and washing” value (octopamine receptors [6]; membranes preincubated with compound)?
Answer: The value was 3 fold.

Question: For `[3H]c1c(CC)c(N=C2NCCN2)c(CC)c([3H])c1N=[N+]=[N-]` [compound VIII, 2-(4-azido-2,6-diethyl-3,5-ditritiophenyl)imino-2-imidazoline], which “Ka (concentration necessary for half-maximal activation of cyclase activity)” value [7] is on record?
Answer: The value was “about 0.5 micromolar”.

Question: What about the “adenylate cyclase activity profile compared with unlabeled IV” value ([7]; light organ membranes) of the same molecule?
Answer: The value was “virtually identical”.

Question: What about the “light response compared with genuine unlabeled compound” value ([5]; injection of 0.5 nmoles into isolated firefly tails) of the same molecule?
Answer: Its value is “identical”.

Question: What about the “concentration at which specific binding saturates” value (octopamine receptor [8]; specific binding = absence minus presence of 1000-fold excess mianserin) of the same molecule?
Answer: Its value is “about 2 micromolar”.

Question: What about the pKd (octopamine receptor [8]; specific binding, light organ membranes, read-out: concentration at which 50% binding occurs) of the same molecule?
Answer: The pKd was about 6.10.

Question: What about the “increase in amount of label permanently bound on exposure to UV light” value (octopamine receptors [9]; photolyzed vs no UV) of the same molecule?
Answer: Its value is 14 fold.

Question: What about the “labeling of the lantern” value (octopamine receptors [10]; absence of UV light) of the same molecule?
Answer: The value was “no labeling”.

Question: And the “labeling of the lantern” value (octopamine receptors [10]; exposed to intense UV)?
Answer: Its value is “marked labeling”.

Question: What about the “proteins labeled on gel” value ([4]; absence of UV radiation (lane C)) of the same molecule?
Answer: Its value is “no proteins were labeled”.

Question: What about the “proteins labeled on gel” value ([4]; photolyzed with UV (lane A)) of the same molecule?
Answer: Its value is “Four major labeled peaks”.

Question: With `NCCc1ccc(O)c(O)c1` [dopamine] as the molecule, how does the “displacement of irreversible VIII binding (in words)” value (“displacement” below) (octopamine receptors [9]) read?
Answer: Its value is “not displaced”.

Question: With `NCCc1c[nH]cn1` [histamine] as the molecule, how does the “displacement” value (octopamine receptors [9]) read?
Answer: The value was “not displaced”.

Question: With `NC[C@H](O)c1ccc(O)c(O)c1` [norepinephrine] as the molecule, how does the “displacement” value (octopamine receptors [9]) read?
Answer: Its value is “not displaced”.

Question: What does the source list for `NCC(O)c1ccc(O)cc1` (centres unmarked) [octopamine]?
Answer: Ka (concentration necessary for half-maximal activation of cyclase activity) [7]: 30 µM; irreversible activation after preincubation with compound alone (octopamine receptors [6]): failed to cause any irreversible activation

Question: Which “displacement” value (octopamine receptors [9]) does the source give for `NCCc1c[nH]c2ccc(O)cc12` [serotonin] here?
Answer: Its value is “not displaced”.
